IC50 data for 26 compounds are collected here from patent publication US20240109893A1, “PREPARATION AND APPLICATION METHOD OF HETEROCYCLIC COMPOUNDS AS KRAS INHIBITOR” (SHANGHAI KECHOW PHARMA, INC., priority 2020, published 2024).

The term IC50 denotes the concentration that inhibits the measured activity by half.

Sequence of KRAS G12C-GDP (P01116-2 other isoform, or with tags, fused parts or gaps G12C): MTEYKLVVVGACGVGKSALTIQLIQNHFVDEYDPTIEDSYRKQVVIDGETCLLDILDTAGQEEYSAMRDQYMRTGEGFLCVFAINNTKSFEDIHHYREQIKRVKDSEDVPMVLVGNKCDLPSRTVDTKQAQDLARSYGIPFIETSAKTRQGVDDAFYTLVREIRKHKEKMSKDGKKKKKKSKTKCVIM

In the first assay the test system is H358 cells. Put plainly: Cell activity experiment: activity test of H358 cells (MTT, 5 days). Format: cell-based. The note with it: 5 days incubation, absorbance 492 nm. The gist of the method: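 Viability was read by MTT: 4 h dye incubation, DMSO solubilisation, absorbance at 492 nm. This followed 5 days' treatment (37° C., 5% CO2) of H358 cells, pre-grown 24 h, with eight-point 3-fold dilutions up to 10000 nM final, 0.5% DMSO final, triplicate wells.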
For `C=C(F)C(=O)N1CCN(c2nc(OC[C@@H]3CCCN3C)nc3c(F)c(-c4cccc5c4CC4CC54)ccc23)C[C@@H]1CC#N` (single isomer, unassigned) [Example 883], the midpoint of inhibition, the IC50, lay at 10.6 nM.

The same assay, now with this note: Homo sapiens, NCI-H358, 120 h, 5 days incubation, absorbance 492 nm.
In the case of `C=C(F)C(=O)N1CCN(c2nc(OCC34CCCN3CCC4)nc3c(F)c(-c4cccc5c4CCCC5)ncc23)C[C@@H]1CC#N` [Example 3, (S)-2-(4-(8-fluoro-2-((tetrahydro-1H-pyrrolizin-7a(5H)-yl)methoxy)-7-(5,6,7,8-tetrahydronaphthalen-1-yl)pyridino[4,3-d]pyrimidin-4-yl)-1-(2-fluoroacryloyl)piperazin-2-yl)acetonitrile], half-maximal inhibition (IC50) was put at 3.5 nM.
The same measure, in the same setting: the same measure for `C=C(F)C(=O)N1CC[C@@H]2[C@H]1CN2c1nc(OC[C@@H]2CCCN2C)nc2c(F)c(-c3cccc4c3CCCC4)ncc12` [Example 10, 2-fluoro-1-((1R,5R)-6-(8-fluoro-2-(((S)-1-methylpyrrolidin-2-yl)methoxy)-7-(5,6,7,8-tetrahydronaphthalen-1-yl)pyridino[4,3-d]pyrimidin-4-yl)-2,6-diazabicyclo[3.2.0]hept-2-yl)prop-2-en-1-one]: 60 nM.
The same measure, in the same setting: the same measure for `C=CC(=O)N1CCN(c2nc(OC[C@@H]3CCCN3C)nc3c(F)c(-c4ccc(F)c5c4CCCC5)ncc23)C[C@@H]1CC#N` [Example 17, 2-((S)-1-acryloyl-4-(8-fluoro-7-(4-fluoro-5,6,7,8-tetrahydronaphthalen-1-yl)-2-(((S)-1-methylpyrrolidin-2-yl)methoxy)pyridino[4,3-d]pyrimidin-4-yl)piperazin-2-yl)acetonitrile]: 30 nM; for `C=CC(=O)N1CCN(c2nc(OC[C@@H]3CCCN3C)nc3cc(-c4cccc5cccc(Cl)c45)c(Cl)cc23)C[C@@H]1CC#N` [Example 465, 2-((S)-1-acryloyl-4-(6-chloro-7-(8-chloronaphthalen-1-yl)-2-(((S)-1-methylpyrrolidin-2-yl)methoxy)quinazolin-4-yl)piperazin-2-yl)acetonitrile]: 70 nM; for `C=CC(=O)N1CCN(c2nc(OC[C@@H]3CCCN3C)nc3c(F)c(-c4cccc5c4C4CC4C5)ncc23)C[C@@H]1CC#N` (stereo partly drawn) [Example 52, 2-((2S)-1-acryloyl-4-(8-fluoro-2-(((S)-1-methylpyrrolidin-2-yl)methoxy)-7-(1,1a,6,6a-tetrahydrocyclopropa[a]inden-2-yl)pyridino[4,3-d]pyrimidin-4-yl)piperazin-2-yl)acetonitrile]: 0.22 nM.
Still for that read-out and setting: the same measure for `C=CC(=O)N1CCN(c2nc(OC[C@@H]3CCCN3C)nc3c(F)c(-c4cccc5c4[C@H]4C[C@H]4C5)ncc23)C[C@@H]1CC#N` [Example 56, 2-((S)-1-acryloyl-4-(8-fluoro-2-(((S)-1-methylpyrrolidin-2-yl)methoxy)-7-((1aS,6aS)-1,1a,6,6a-tetrahydrocyclopropa[a]inden-2-yl)pyridino[4,3-d]pyrimidin-4-yl)piperazin-2-yl)acetonitrile]: 2.2 nM; for `C=C(F)C(=O)N1CCN(c2nc(OC[C@@]34CCCN3C[C@H](F)C4)nc3c(F)c(-c4cccc5c4[C@H]4C[C@H]4C5)ncc23)C[C@@H]1CC#N` [Example 70]: 7 nM; for `C=C(F)C(=O)N1CCN(c2nc(OC[C@@H]3CCCN3C)nc3cc(-c4cccc5c4CCCC5)ccc23)C[C@@H]1CC#N` [Example 111]: 140 nM.
Consider `C=CC(=O)N1CCN(c2nc(OC[C@@H]3CCCN3C)nc3c(F)c(-c4cccc5c4CCOC5)ncc23)C[C@@H]1CC#N` [Example 50, 2-((S)-1-acryloyl-4-(8-fluoro-7-(isochroman-5-yl)-2-(((S)-1-methylpyrrolidin-2-yl)methoxy)pyridino[4,3-d]pyrimidin-4-yl)piperazin-2-yl)acetonitrile], for which the IC50 was found to be 140 nM.
Regarding `C=C(F)C(=O)N1CCN(c2nc(OC[C@@H]3CCCN3C)nc3c(F)c(-c4cccc5c4CCCC5)ncc23)C[C@@H]1CC#N` [Example 4, 2-((S)-4-(8-fluoro-2-(((S)-1-methylpyrrolidin-2-yl)methoxy)-7-(5,6,7,8-tetrahydronaphthalen-1-yl)pyridino[4,3-d]pyrimidin-4-yl)-1-(2-fluoroacryloyl)piperazin-2-yl)acetonitrile], 70 nM corresponded to half-maximal inhibition (IC50).
In the case of `C=CC(=O)N1CC[C@@H]2[C@H]1CN2c1nc(OCC23CCCN2CCC3)nc2c(F)c(-c3cncc4c3CCCC4)ncc12` [Example 45, 1-((1R,5R)-6-(8-fluoro-2-((tetrahydro-1H-pyrrolizin-7a(5H)-yl)methoxy)-7-(5,6,7,8-tetrahydroisoquinoline-4-yl)pyridino[4,3-d]pyrimidin-4-yl)-2,6-diazabicyclo[3.2.0]hept-2-yl)prop-2-en-1-one], it took 10 nM to reach half-maximal inhibition (IC50).
Still for that read-out and setting: the figure for `C=C(F)C(=O)N1CCN(c2nc(OCC34CCCN3CCC4)nc3c(F)c(-c4cccc5c4C4CC4C5)ncc23)C[C@@H]1CC#N` (stereo partly drawn) [Example 62, 2-((2S)-4-(8-fluoro-2-((tetrahydro-1H-pyrrolizin-7a(5H)-yl)methoxy)-7-(1,1a,6,6a-tetrahydrocyclopropa[a]inden-2-yl)pyridino[4,3-d]pyrimidin-4-yl)-1-(2-fluoroacryloyl)piperazin-2-yl)acetonitrile] is 8 nM.
On the same count and under the same terms, the figure for `C=CC(=O)N1CCN(c2nc(OC[C@@]34CCCN3C[C@H](F)C4)nc3c(OC4CC4)c(-c4cccc5ccc(F)c(Cl)c45)c(Cl)cc23)C[C@@H]1CC#N` [Example 920, 2-((2S)-1-acryloyl-4-(6-chloro-7-(8-chloro-7-fluoronaphthalen-1-yl)-8-cyclopropoxy-2-((2R,7aS)-2-fluorotetrahydro-1H-pyrrolizin-7a(5H-yl)methoxy)quinazolin-4-yl)piperazin-2-yl)acetonitrile] is 31 nM.
The same measure, in the same setting: the same measure for `C=CC(=O)N1CCN(c2nc(OCC34CCCN3C[C@H](F)C4)nc3cc(-c4cccc5c4CCCC5)ccc23)C[C@@H]1CC#N` (stereo partly shown) [Example 116]: 15 nM; for `C=CC(=O)N1CCN(c2nc(Oc3cccc4c3CCN(C)C4)nc3cc(-c4cccc5c4CCCC5)ccc23)C[C@@H]1CC#N` [Example 109]: 287 nM.
For `C=C(F)C(=O)N1CCN(C2=C(C#N)C(OC[C@@H]3CCCN3C)=NC3C=C(c4cccc5ccc(F)c(Cl)c45)C=CC23)C[C@@H]1CC#N` (stereo partly shown) [Example 624], half-maximal inhibition (IC50) was put at 800 nM.
Same read-out and setting: the same measure for `C=C(F)C(=O)N1CCN(c2nc(OC[C@@H]3C[C@@H](F)CN3C)nc3cc(-c4cncc5c4CCCC5)ccc23)C[C@@H]1CC#N` [Example 145]: 102 nM.
Still for that read-out and setting: the same measure for `C=CC(=O)N1CCN(c2nc(OC[C@@H]3C[C@@H](F)CN3C)nc3c(F)c(-c4cncc5cccc(Cl)c45)ccc23)C[C@@H]1CC#N` [Example 160]: 5 nM; for `C=CC(=O)N1CCN(c2nc(OCC34CCCN3CCC4)nc3cc(-c4cncc5cccc(Cl)c45)ccc23)C[C@@H]1CC#N` [Example 130, (S)-2-(1-acryloyl-4-(7-(5-chloroisoquinolin-4-yl)-2-((tetrahydro-1H-pyrrolizin-7a(5H)-yl)methoxy)quinazolin-4-yl)piperazin-2-yl)acetonitrile]: 8 nM; for `C=C(F)C(=O)N1CCN(c2nc(OC[C@@]34CCCN3C[C@H](F)C4)nc3c(OC4CC4)c(-c4c(C)ccc5[nH]ncc45)c(Cl)cc23)C[C@@H]1CC#N` [Example 932, 2-((2S)-4-(6-chloro-8-cyclopropoxy-2-((2R,7aS)-2-fluorotetrahydro-1H-pyrrolizin-7a(5H)-ylmethoxy)-7-(5-methyl-1H-indazol-4-yl)quinazolin-4-yl)-1-(2-fluoroacryloyl)piperazin-2-yl)acetonitrile]: 0.4 nM.
On the same count and under the same terms, the figure for `C=CC(=O)N1CC[C@@H]2[C@H]1CN2c1nc(OCC23CCCN2CCC3)nc2c(F)c(-c3cccc4c3CCCC4)ncc12` [Example 13, 1-((1R,5R)-6-(8-fluoro-2-((tetrahydro-1H-pyrrolizin-7a(5H)-yl)methoxy)-7-(5,6,7,8-tetrahydronaphthalen-1-yl)pyridino[4,3-d]pyrimidin-4-yl)-2,6-diazabicyclo[3.2.0]hept-2-yl)prop-2-en-1-one] is 5 nM; for `C=CC(=O)N1CCN(c2nc(OC[C@@H]3CCCN3C)nc3cc(N4CCCc5cccc(Cl)c54)ccc23)C[C@@H]1CC#N` [Example 618] it is 200 nM.
As to `C=CC(=O)N1CCN(c2nc(OC[C@@H]3C[C@@H](F)CN3C)nc3c(F)c(-c4cccc5c4CCCC5)ncc23)C[C@@H]1CC#N` [Example 5, 2-((S)-1-acryloyl-4-(8-fluoro-2-(((2S,4R)-4-fluoro-1-methylpyrrolidin-2-yl)methoxy)-7-(5,6,7,8-tetrahydronaphthalen-1-yl)pyridino[4,3-d]pyrimidin-4-yl)piperazin-2-yl)acetonitrile], the IC50 is 20 nM.
On the same count and under the same terms, the same measure for `C=CC(=O)N1CCN(c2nc(OC[C@@H]3CCCN3C)nc3cc(-c4cncc5cccc(Cl)c45)ccc23)C[C@@H]1CC#N` [Example 126, 2-((S)-1-acryloyl-4-(7-(5-chloroisoquinolin-4-yl)-2-((((S)-1-methylpyrrolidin-2-yl)methoxy)quinazolin-4-yl])piperazin-2-yl)acetonitrile]: 18 nM; for `C=CC(=O)N1CC[C@@H]2[C@H]1CN2c1nc(OC[C@@H]2C[C@@H](F)CN2C)nc2c(F)c(-c3cccc4c3CCCC4)ncc12` [Example 11]: 26 nM.

A further assay addresses KRAS G12C-GDP (Homo sapiens (Human), UniProt P01116, G12C). Put plainly: KRAS G12C-GDP exchange test (SOS/cRAF/GTP, HTRF). The note with it: 1 h premix with compound, 2 h reaction with SOS, cRAF, GTP. Format: biochemical. Here is the method:
2. A mixture of SOS (Pharmaron, ZZY-20190823), cRAF (Pharmaron, ZZY-20190823), GTP (Sigma, A6885-100MG), MAb Anti 6HIS-d2/MAb Anti GST-Eu (Cisbio, 61HISDLB/61GSTKLB) was added for a catalyzed reaction for 2 h.
3. The fluorescence signals of the emitted light at 615 nm and 665 nm under 320 nm excitation light were read by Biotek Microplate Reader (Synergy4).
4. The IC50 (median inhibitory concentration) of the compound was obtained by the following non-linear fitting formula: Y=Bottom+(Top−Bottom)/(1+10^((Log IC50−X)*Hill Slope)), and the data were analyzed by Graphpad 6-0 software.
As to `C=C(F)C(=O)N1CCN(c2nc(OCC34CCCN3CCC4)nc3c(F)c(-c4cccc5c4CCCC5)ncc23)C[C@@H]1CC#N` [Example 3, (S)-2-(4-(8-fluoro-2-((tetrahydro-1H-pyrrolizin-7a(5H)-yl)methoxy)-7-(5,6,7,8-tetrahydronaphthalen-1-yl)pyridino[4,3-d]pyrimidin-4-yl)-1-(2-fluoroacryloyl)piperazin-2-yl)acetonitrile], the half-inhibitory concentration (IC50) is 13.8 nM.
On to `C=C(F)C(=O)N1CC[C@@H]2[C@H]1CN2c1nc(OC[C@@H]2CCCN2C)nc2c(F)c(-c3cccc4c3CCCC4)ncc12` [Example 10, 2-fluoro-1-((1R,5R)-6-(8-fluoro-2-(((S)-1-methylpyrrolidin-2-yl)methoxy)-7-(5,6,7,8-tetrahydronaphthalen-1-yl)pyridino[4,3-d]pyrimidin-4-yl)-2,6-diazabicyclo[3.2.0]hept-2-yl)prop-2-en-1-one], for which the IC50 came out at 8 nM.
On the same count and under the same terms, the same measure for `C=CC(=O)N1CCN(c2nc(OC[C@@H]3CCCN3C)nc3c(F)c(-c4ccc(F)c5c4CCCC5)ncc23)C[C@@H]1CC#N` [Example 17, 2-((S)-1-acryloyl-4-(8-fluoro-7-(4-fluoro-5,6,7,8-tetrahydronaphthalen-1-yl)-2-(((S)-1-methylpyrrolidin-2-yl)methoxy)pyridino[4,3-d]pyrimidin-4-yl)piperazin-2-yl)acetonitrile]: 1.65 nM.
`C=C(F)C(=O)N1CCN(c2nc(OC[C@@H]3CCCN3C)nc3c(F)c(-c4cccc5c4CC4CC54)ccc23)C[C@@H]1CC#N` (single isomer, unassigned) [Example 883]: the IC50 was determined as 0.49 nM.
On the same count and under the same terms, the figure for `C=CC(=O)N1CCN(c2nc(OC[C@@H]3CCCN3C)nc3cc(-c4cccc5cccc(Cl)c45)c(Cl)cc23)C[C@@H]1CC#N` [Example 465, 2-((S)-1-acryloyl-4-(6-chloro-7-(8-chloronaphthalen-1-yl)-2-(((S)-1-methylpyrrolidin-2-yl)methoxy)quinazolin-4-yl)piperazin-2-yl)acetonitrile] is 2.23 nM.
